From publication PMC3506268, “Microneedle pretreatment enhances the percutaneous permeation of hydrophilic compounds with high melting points” (BMC Pharmacology & Toxicology, 2012)
Like-named read-outs stand apart in the source and are kept apart here.

Legend:
[1] = design: method as in earlier work; details: cited from earlier work
in vitro = details: for Jmax: 80% saturated solution in PBS, 6 h; for Jmax / Papp at 6 h / recovery: mean, n = 5–6; for Papp at 6 h / recovery: female, Holstein Friesian, bovine; for Papp at 6 h: 10^-6 Papp
Experimental: The skin was obtained from bovine udders, all of which were harvested from Holstein Friesian cows which died at a slaughterhouse for food production, and the cleaned skin samples were stored at - 20°C until use. After thawing at room temperature split skin samples with a thickness of 600 μm ± 50 μm were produced using an electrical microtome (Zimmer, Eschbach, Germany), whereby damaged skin samples were excluded from the study.
Prior to the experiment split skin samples with appropriate size of 2 x 2 cm were incubated in phosphate buffered saline (PBS) for 30 minutes. They were placed on a styropor panel and fixed with needles beyond the subsequent diffusion area of the skin samples before the microneedle rollers were rolled in four axes radial over the skin surface (Figure 1 C).
The diffusion experiments were performed in Franz-type diffusion cells obtained from PermeGear (Riegelsville, PA, USA) with a receptor chamber of approximately 12 ml and a diffusion area of approximately 1.77 cm². Sonicated PBS was used as receptor fluid. […] The donor chambers were covered with parafilm® (American Can Company, Baltimore, USA) and were checked for precipitation of the compounds during the whole experiment. Aliquots were taken from the receptor fluid and replaced by the same amount of fresh PBS at 0, 0.5, 1, 2, 4, and 6 hours. Each treatment (untreated control, 200 μm microneedle, and 300 μm microneedle) was performed in duplicate per animal (n = 6).
The receptor fluid samples (100 μl) were analysed by high-performance liquid-chromatography, the methodology of which has derived from recent studies. […] The separation took place on a reversed phase column (LiChroCART 125–4, LiChrospher 100 RP-18e, 5 μm (Merck, Darmstadt, Germany)), which was maintained at 40°C.
The linear part of the gradient of the permeation curve (time vs. concentration in the receptor fluid) represents the maximum flux Jmax (μg/cm²/h) and is employed to calculate the apparent permeability coefficient Papp (cm/s) according to Niedorf et al. 2008 [23]. Differences between control samples and pretreated skin samples were evaluated by Friedman test followed by Dunn´s multiple comparison test (GraphPad Prism 4.01 (GraphPad Software Inc., San Diego, USA). A 0.05 significance level was adopted.

[2] = design: method as in PMID 20624460; details: microneedle treated skin, in vitro; cited from earlier work
[3] = 200 μm microneedle pretreatment
[4] = 300 μm microneedle pretreatment
[5] = 300 μm microneedle pretreatment, * = p<0.05 versus control

Structure (SMILES)	logKo/w [1]	logKo/w ([1]; listed as diclofenac)	Jmax (in vitro; [3]) [μg/cm²/h]	Increase of maximum flux (Jmax) and Papp-value versus untreated skin (in vitro; [4])	Jmax (in vitro; [4]) [μg/cm²/h]	Papp at 6 h (in vitro; [5]) [×10⁻⁶ cm/s]	Papp at 6 h (in vitro; untreated control skin) [×10⁻⁶ cm/s]	recovery (in vitro; [3]) [%]	recovery (in vitro; [4]) [%]	recovery (in vitro; untreated control skin) [%]	Jmax (in vitro; untreated control skin) [μg/cm²/h]	Higher flux through pretreated skin compared to untreated skin (in vitro; [3])	Higher flux through pretreated skin compared to untreated skin (in vitro; [4])	Papp at 6 h (in vitro; [3]) [×10⁻⁶ cm/s]	Permeation enhancement [2]
O=C(O)Cc1ccccc1Nc1c(Cl)cccc1Cl [Diclofenac]	0.7	< 1	8.75	≤ 7 fold	11.55	1.24	0.18	3.17	3.54	0.49	1.72				
CC(C)Cc1ccc(C(C)C(=O)O)cc1 (stereo not drawn) [Ibuprofen, ibuprofen]				up to 3 fold				11.2	17.8	6.76		twofold	threefold		
CC(C(=O)O)c1cccc(C(=O)c2ccccc2)c1 (stereo not drawn) [Ketoprofen, ketoprofen]			2.36	up to 3 fold	2.99	0.35	0.12	0.76	0.96	0.3	1.03	twofold	threefold	0.28	
CC(=O)Oc1ccccc1C(=O)O [acetylsalicylic acid]															up to 2 times
